Tests used:
Assay type in all cases: in vivo
[1] = system: Abutilon theophrasti (ABUTH); assay: Herbicidal pre-emergence action, ABUTH; details: 1280 g/ha, visual grading after ca. 3 weeks vs untreated controls (Table A1)
From the text: (§1) Seeds of mono- and dicotyledonous weed plants were sown in plastic pots (double sowings with one species of mono- and one species of dicotyledonous weed plants per pot), in sandy loam, and covered with soil. The compounds according to the invention, formulated in the form of wettable powders (WP) or as emulsifiable concentrates (EC), were applied to the surface of the covering soil as an aqueous suspension or as an emulsion, with the addition of 0.5% of an additive, at an application rate of 600 litres of water per hectare (converted). Following treatment, the pots were placed in a greenhouse and kept under optimum growth conditions for the test plants. The visual grading of the damage to the test plants is carried out after ca. 3 weeks in comparison to untreated controls (herbicidal effect in percent (%): 100% effect=plants have died, 0% effect=as control plants).

[2] = system: Amaranthus retroflexus (AMARE); assay: Herbicidal pre-emergence action, AMARE
From the text: as §1, with “plants). Seeds of mono- and dicotyledonous weed plants were sown in plastic pots (double sowings with one species of mono- and one species of dicotyledonous weed plants per pot), in sandy loam, and covered with soil. The compounds according to the invention, formulated in the form of wettable powders (WP) or as emulsifiable concentrates (EC), were applied to the surface of the covering soil as an aqueous suspension or as an emulsion, with the addition of 0.5% of an additive, at an application rate of 600 litres of water per hectare (converted). Following treatment, the pots were placed in a greenhouse and kept under optimum growth conditions for the test plants. The visual grading of the damage to the test plants is carried out after ca. 3 weeks in comparison to untreated controls (herbicidal effect in percent (%): 100% effect=plants have died, 0% effect=as control plants).” for “plants).”

[3] = system: Echinochloa crus-galli (ECHCG); assay: Herbicidal pre-emergence action, ECHCG
From the text: as §1, with “plants). Seeds of mono- and dicotyledonous weed plants were sown in plastic pots (double sowings with one species of mono- and one species of dicotyledonous weed plants per pot), in sandy loam, and covered with soil. The compounds according to the invention, formulated in the form of wettable powders (WP) or as emulsifiable concentrates (EC), were applied to the surface of the covering soil as an aqueous suspension or as an emulsion, with the addition of 0.5% of an additive, at an application rate of 600 litres of water per hectare (converted). Following treatment, the pots were placed in a greenhouse and kept under optimum growth conditions for the test plants. The visual grading of the damage to the test plants is carried out after ca. 3 weeks in comparison to untreated controls (herbicidal effect in percent (%): 100% effect=plants have died, 0% effect=as control plants).” for “plants).”

Kochia scoparia (KCHSC) = assay: Herbicidal pre-emergence action, KCHSC
From the text: as §1, with “plants). Seeds of mono- and dicotyledonous weed plants were sown in plastic pots (double sowings with one species of mono- and one species of dicotyledonous weed plants per pot), in sandy loam, and covered with soil. The compounds according to the invention, formulated in the form of wettable powders (WP) or as emulsifiable concentrates (EC), were applied to the surface of the covering soil as an aqueous suspension or as an emulsion, with the addition of 0.5% of an additive, at an application rate of 600 litres of water per hectare (converted). Following treatment, the pots were placed in a greenhouse and kept under optimum growth conditions for the test plants. The visual grading of the damage to the test plants is carried out after ca. 3 weeks in comparison to untreated controls (herbicidal effect in percent (%): 100% effect=plants have died, 0% effect=as control plants).” for “plants).”

[4] = system: Matricaria inodora (MATIN); assay: Herbicidal pre-emergence action, MATIN
From the text: as §1, with “plants). Seeds of mono- and dicotyledonous weed plants were sown in plastic pots (double sowings with one species of mono- and one species of dicotyledonous weed plants per pot), in sandy loam, and covered with soil. The compounds according to the invention, formulated in the form of wettable powders (WP) or as emulsifiable concentrates (EC), were applied to the surface of the covering soil as an aqueous suspension or as an emulsion, with the addition of 0.5% of an additive, at an application rate of 600 litres of water per hectare (converted). Following treatment, the pots were placed in a greenhouse and kept under optimum growth conditions for the test plants. The visual grading of the damage to the test plants is carried out after ca. 3 weeks in comparison to untreated controls (herbicidal effect in percent (%): 100% effect=plants have died, 0% effect=as control plants).” for “plants).”

Stellaria media (STEME) [5] = assay: Herbicidal pre-emergence action, STEME
From the text: as §1, with “plants). Seeds of mono- and dicotyledonous weed plants were sown in plastic pots (double sowings with one species of mono- and one species of dicotyledonous weed plants per pot), in sandy loam, and covered with soil. The compounds according to the invention, formulated in the form of wettable powders (WP) or as emulsifiable concentrates (EC), were applied to the surface of the covering soil as an aqueous suspension or as an emulsion, with the addition of 0.5% of an additive, at an application rate of 600 litres of water per hectare (converted). Following treatment, the pots were placed in a greenhouse and kept under optimum growth conditions for the test plants. The visual grading of the damage to the test plants is carried out after ca. 3 weeks in comparison to untreated controls (herbicidal effect in percent (%): 100% effect=plants have died, 0% effect=as control plants).” for “plants).”

[6] = system: Amaranthus retroflexus (AMARE); assay: Herbicidal post-emergence action, AMARE
From the text: (§2) Seeds of mono- and dicotyledonous weed plants were sown in plastic pots (double sowings with one species of mono- and one species of dicotyledonous weed plants per pot), in sandy loam, covered with soil and grown under controlled growth conditions. 2 to 3 weeks after sowing, the test plants were sprayed in the single-leaf stage. The compounds according to the invention, formulated in the form of wettable powders (WP) or as emulsifiable concentrates (EC), were sprayed onto the green plant parts as an aqueous suspension or as an emulsion, with the addition of 0.5% of an additive, at an application rate of 600 litres of water per hectare (converted). The test plants were placed in the greenhouse for ca. 3 weeks under optimum growth conditions, and then the effect of the preparations is assessed visually in comparison with untreated controls (herbicidal effect in percent (%): 100% effect=plants have died, 0% effect=as control plants). […]

[7] = system: Echinochloa crus-galli (ECHCG); assay: Herbicidal post-emergence action, ECHCG
From the text: as §2

Lolium rigidum (LOLRI) = assay: Herbicidal post-emergence action, LOLRI
From the text: as §2

[8] = system: Matricaria inodora (MATIN); assay: Herbicidal post-emergence action, MATIN
From the text: as §2

Poa annua (POAAN) = assay: Herbicidal post-emergence action, POAAN
From the text: as §2

Stellaria media (STEME) [9] = assay: Herbicidal post-emergence action, STEME
From the text: as §2

Veronica persica (VERPE) = assay: Herbicidal post-emergence action, VERPE
From the text: as §2

[10] = 320 g/ha, visual grading after ca. 3 weeks vs untreated controls (Table C8)
[11] = 1280 g/ha, visual grading after ca. 3 weeks vs untreated controls (Table A11)
[12] = 1280 g/ha, visual grading after ca. 3 weeks vs untreated controls (Table A3)
[13] = 320 g/ha, visual grading after ca. 3 weeks vs untreated controls (Table C1)
[14] = 1280 g/ha, visual grading after ca. 3 weeks vs untreated controls (Table A4)
[15] = 320 g/ha, visual grading after ca. 3 weeks vs untreated controls (Table C3)
[16] = 1280 g/ha, visual grading after ca. 3 weeks vs untreated controls (Table A6)
[17] = 320 g/ha, visual grading after ca. 3 weeks vs untreated controls (Table C6)
[18] = 1280 g/ha, visual grading after ca. 3 weeks vs untreated controls (Table A9)
[19] = 320 g/ha, assessed visually after ca. 3 weeks vs untreated controls (Table D6)
[20] = 1280 g/ha, assessed visually after ca. 3 weeks vs untreated controls (Table B11)
[21] = 1280 g/ha, assessed visually after ca. 3 weeks vs untreated controls (Table B3)
[22] = 1280 g/ha, assessed visually after ca. 3 weeks vs untreated controls (Table B5)
[23] = 320 g/ha, assessed visually after ca. 3 weeks vs untreated controls (Table D2)
[24] = 1280 g/ha, assessed visually after ca. 3 weeks vs untreated controls (Table B6)
[25] = 320 g/ha, assessed visually after ca. 3 weeks vs untreated controls (Table D3)
[26] = 1280 g/ha, assessed visually after ca. 3 weeks vs untreated controls (Table B8)
[27] = 320 g/ha, assessed visually after ca. 3 weeks vs untreated controls (Table D4)
[28] = 1280 g/ha, assessed visually after ca. 3 weeks vs untreated controls (Table B9)
[29] = 320 g/ha, assessed visually after ca. 3 weeks vs untreated controls (Table D5)
[30] = 1280 g/ha, assessed visually after ca. 3 weeks vs untreated controls (Table B10)

Row | SMILES | herbicidal effect in percent, ABUTH [1] [%] | herbicidal effect in percent, AMARE [2, 11] [%] | herbicidal effect in percent, ECHCG [3, 12] [%] | herbicidal effect in percent, KCHSC (Kochia scoparia (KCHSC); [14]) [%] | herbicidal effect in percent, MATIN [4, 15] [%] | herbicidal effect in percent, MATIN [4, 16] [%] | herbicidal effect in percent, STEME (Stellaria media (STEME) [5]; [17]) [%] | herbicidal effect in percent, STEME (Stellaria media (STEME) [5]; [18]) [%] | herbicidal effect in percent, AMARE [6, 19] [%] | herbicidal effect in percent, AMARE [6, 20] [%] | herbicidal effect in percent, ECHCG [7, 21] [%] | herbicidal effect in percent, LOLRI (Lolium rigidum (LOLRI); [22]) [%] | herbicidal effect in percent, MATIN [8, 23] [%] | herbicidal effect in percent, MATIN [8, 24] [%] | herbicidal effect in percent, POAAN (Poa annua (POAAN); [25]) [%] | herbicidal effect in percent, POAAN (Poa annua (POAAN); [26]) [%] | herbicidal effect in percent, STEME (Stellaria media (STEME) [9]; [27]) [%] | herbicidal effect in percent, STEME (Stellaria media (STEME) [9]; [28]) [%] | herbicidal effect in percent, VERPE (Veronica persica (VERPE); [29]) [%] | herbicidal effect in percent, VERPE (Veronica persica (VERPE); [30]) [%] | other results
1 | O=C(Nc1ncns1)c1c(C2CC2)ccnc1Cl [Example I-003, 2-chloro-4-cyclopropyl-N-(1,2,4-thiadiazol-5-yl)pyridine-3-carboxamide] | 90 | 100 | 90 | 100 | 100 | 100 | 100 | 100 | 100 | 100 | 90 | 90 | 90 | 100 | 90 | 100 | 100 | 100 | 90 | 100 | herbicidal effect in percent, AMARE [2, 10]: 90%; herbicidal effect in percent, KCHSC (Kochia scoparia (KCHSC); [13]): 90%
2 | O=C(Nc1ncns1)c1c(C2CC2)ccnc1F [Example I-005] | 90 | 100 | 90 | 100 | 100 | 100 | 100 | 100 | 100 | 100 | 90 | 100 | 100 | 100 | 100 | 100 | 100 | 100 | 100 | 100 | herbicidal effect in percent, AMARE [2, 10]: 100%; herbicidal effect in percent, ECHCG ([3]; 320 g/ha, visual grading after ca. 3 weeks vs untreated controls (Table C9)): 90%; herbicidal effect in percent, KCHSC (Kochia scoparia (KCHSC); [13]): 100%; herbicidal effect in percent, LOLRI (Lolium rigidum (LOLRI); 320 g/ha, assessed visually after ca. 3 weeks vs untreated controls (Table D9)): 100%
3 | O=C(Nc1nc(Cl)ns1)c1c(C2CC2)ccnc1Cl [Example I-013] | 90 | 90 | 90 | 90 | 90 | 100 | 90 | 100 | 90 | 90 | 90 | 90 | 90 | 90 | 90 | 90 | 90 | 90 | 90 | 90 | herbicidal effect in percent, ECHCG ([7]; 320 g/ha, assessed visually after ca. 3 weeks vs untreated controls (Table D7)): 90%
